In ChEMBL document CHEMBL1201862, “PubChem BioAssay data set” (2004):
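96-well plates; 48 h exposure; 5 concentrations. Endpoints by linear interpolation between flanking doses. Not reached: highest tested concentration assigned. GI50: concentration for 50% inhibition of growth.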 Activity calls are given as the source filed them. No stated cut-off is given here; in the data, active = GI50 up to about 1.1 µM and inactive = higher.

Tests used:
Assay in all cases: NCI-60 cell line screen, 48 h
RXF 393 = system: RXF 393
CAKI-1 = system: CAKI-1
UACC-62 = system: UACC-62
TK-10 = system: TK-10
OVCAR-5 = system: OVCAR-5
NCI-H23 = system: NCI-H23
MDA-MB-231 = system: MDA-MB-231
HCT-116 = system: HCT-116
MDA-MB-435 = system: MDA-MB-435
COLO 205 = system: COLO 205
M14 = system: M14
SR = system: SR
Hs-578T = system: Hs-578T
SNB-19 = system: SNB-19
SK-MEL-2 = system: SK-MEL-2
LOX IMVI = system: LOX IMVI
IGROV-1 = system: IGROV-1
PC-3 = system: PC-3
HOP-92 = system: HOP-92
OVCAR-3 = system: OVCAR-3

Row | SMILES | GI50 (RXF 393) | GI50 (CAKI-1) | GI50 (UACC-62) | GI50 (TK-10) | GI50 (OVCAR-5) | GI50 (NCI-H23) | GI50 (MDA-MB-231) | GI50 (HCT-116) | GI50 (MDA-MB-435) | GI50 (COLO 205) | GI50 (M14) | GI50 (SR) | GI50 (Hs-578T) | GI50 (SNB-19) | GI50 (SK-MEL-2) | GI50 (LOX IMVI) | GI50 (IGROV-1) | GI50 (PC-3) | GI50 (HOP-92) | GI50 (OVCAR-3)
1 | CC1CCC/C1=C(/I)C(=O)c1ccccc1 (stereo not drawn) | > 100 µM (inactive) | 2.97 µM (inactive) | 86.7 µM (inactive) | > 100 µM (inactive) | 18.5 µM (inactive) | 74.5 µM (inactive) | 40.2 µM (inactive) | 36.6 µM (inactive) | 28.9 µM (inactive) | > 100 µM (inactive) | 59.3 µM (inactive) | 30.8 µM (inactive) | > 100 µM (inactive) | > 100 µM (inactive) | > 100 µM (inactive) | 9.16 µM (inactive) | > 100 µM (inactive) | > 100 µM (inactive) | – | –
2 | COC(CNC(=O)CNC(=O)c1ccc(C(F)(F)F)cc1)OC | > 100 µM (inactive) | > 100 µM (inactive) | > 100 µM (inactive) | > 100 µM (inactive) | > 100 µM (inactive) | > 100 µM (inactive) | > 100 µM (inactive) | > 100 µM (inactive) | > 100 µM (inactive) | > 100 µM (inactive) | > 100 µM (inactive) | > 100 µM (inactive) | > 100 µM (inactive) | 47.9 µM (inactive) | > 100 µM (inactive) | – | > 100 µM (inactive) | > 100 µM (inactive) | > 100 µM (inactive) | –
3 | Nc1nc(Nc2ccc(Cl)cc2)sc1C(=O)c1cccs1 | 17.2 µM (inactive) | – | > 100 µM (inactive) | 13.1 µM (inactive) | > 100 µM (inactive) | 29.2 µM (inactive) | 40 µM (inactive) | 14.7 µM (inactive) | > 100 µM (inactive) | > 100 µM (inactive) | > 100 µM (inactive) | 2.4 µM (inactive) | 15.2 µM (inactive) | 19.9 µM (inactive) | 98.9 µM (inactive) | > 100 µM (inactive) | 39.6 µM (inactive) | > 100 µM (inactive) | 44.5 µM (inactive) | 5.57 µM (inactive)
4 | O=C(CCCn1ccnc1[N+](=O)[O-])NCCn1ccnc1 | – | > 100 µM (inactive) | > 100 µM (inactive) | > 100 µM (inactive) | > 100 µM (inactive) | > 100 µM (inactive) | > 100 µM (inactive) | > 100 µM (inactive) | > 100 µM (inactive) | 67 µM (inactive) | > 100 µM (inactive) | > 100 µM (inactive) | > 100 µM (inactive) | > 100 µM (inactive) | > 100 µM (inactive) | – | > 100 µM (inactive) | > 100 µM (inactive) | – | > 100 µM (inactive)
5 | CCCC/N=C(/c1ccccc1)N1CCOCC1 | > 100 µM (inactive) | > 100 µM (inactive) | > 100 µM (inactive) | > 100 µM (inactive) | > 100 µM (inactive) | > 100 µM (inactive) | > 100 µM (inactive) | > 100 µM (inactive) | > 100 µM (inactive) | > 100 µM (inactive) | > 100 µM (inactive) | > 100 µM (inactive) | 87.1 µM (inactive) | > 100 µM (inactive) | > 100 µM (inactive) | > 100 µM (inactive) | > 100 µM (inactive) | > 100 µM (inactive) | – | > 100 µM (inactive)
6 | Cc1cc2occ(S(=O)(=O)NC(=O)Nc3ccc(Cl)cc3)c(=O)c2c(=O)o1 | > 100 µM (inactive) | > 100 µM (inactive) | 23.4 µM (inactive) | > 100 µM (inactive) | > 100 µM (inactive) | > 100 µM (inactive) | > 100 µM (inactive) | > 100 µM (inactive) | > 100 µM (inactive) | > 100 µM (inactive) | > 100 µM (inactive) | – | > 100 µM (inactive) | > 100 µM (inactive) | > 100 µM (inactive) | > 100 µM (inactive) | > 100 µM (inactive) | > 100 µM (inactive) | > 100 µM (inactive) | > 100 µM (inactive)
7 | CCNC(=S)N/N=C/c1cc([N+](=O)[O-])ccc1O | 62.2 µM (inactive) | – | 17.5 µM (inactive) | 16.2 µM (inactive) | > 100 µM (inactive) | 41.6 µM (inactive) | 33 µM (inactive) | 16.9 µM (inactive) | 37.2 µM (inactive) | 28.3 µM (inactive) | 33.7 µM (inactive) | 10.9 µM (inactive) | 70.5 µM (inactive) | 34.1 µM (inactive) | > 100 µM (inactive) | 15.7 µM (inactive) | 22.4 µM (inactive) | 28.3 µM (inactive) | – | –
8 | C=C1CC(C)(COc2ccc3c(C)cc(=O)oc3c2)OC1=O (stereo not drawn) | – | 1.3 µM (inactive) | 1.69 µM (inactive) | 1.26 µM (inactive) | 4.22 µM (inactive) | 1.57 µM (inactive) | 3.92 µM (inactive) | 0.778 µM (active) | 1.28 µM (inactive) | 0.951 µM (active) | 1.34 µM (inactive) | 0.918 µM (active) | 3.56 µM (inactive) | 13.7 µM (inactive) | 1.65 µM (inactive) | 1.59 µM (inactive) | 2.47 µM (inactive) | 2.39 µM (inactive) | 1.09 µM (active) | 2.31 µM (inactive)
9 | O=c1[nH]c(=O)n(C2CC(O)C(CO)O2)cc1OCc1ccccc1 (stereo not drawn) | > 100 µM (inactive) | > 100 µM (inactive) | > 100 µM (inactive) | > 100 µM (inactive) | > 100 µM (inactive) | > 100 µM (inactive) | > 100 µM (inactive) | > 100 µM (inactive) | > 100 µM (inactive) | > 100 µM (inactive) | > 100 µM (inactive) | > 100 µM (inactive) | > 100 µM (inactive) | > 100 µM (inactive) | – | > 100 µM (inactive) | > 100 µM (inactive) | > 100 µM (inactive) | – | > 100 µM (inactive)
10 | COC(=O)Cn1cnc2c(Cl)nc(Nc3ccccc3)nc21 | 36.6 µM (inactive) | – | 22.6 µM (inactive) | > 100 µM (inactive) | – | – | 38 µM (inactive) | 35.5 µM (inactive) | 26.7 µM (inactive) | 59.6 µM (inactive) | 29 µM (inactive) | 40.1 µM (inactive) | 20.9 µM (inactive) | 67.9 µM (inactive) | 16.4 µM (inactive) | 17.9 µM (inactive) | 20.8 µM (inactive) | 20.7 µM (inactive) | – | 21.1 µM (inactive)
11 | COc1ccc(NCC(=O)Nn2c(-c3ccccc3)nc3ccccc3c2=O)cc1 | > 10 µM (inactive) | – | 14.1 µM (inactive) | > 100 µM (inactive) | > 100 µM (inactive) | 37.2 µM (inactive) | 19 µM (inactive) | > 10 µM (inactive) | 51.8 µM (inactive) | 37.2 µM (inactive) | 41.3 µM (inactive) | 35.8 µM (inactive) | 28.1 µM (inactive) | 50.2 µM (inactive) | – | 19.6 µM (inactive) | 27 µM (inactive) | 35.6 µM (inactive) | 25.4 µM (inactive) | 60.7 µM (inactive)
12 | CCOC(=O)CSc1nc(-c2ccccc2)c(C#N)c(=O)[nH]1 | > 100 µM (inactive) | > 100 µM (inactive) | > 100 µM (inactive) | > 100 µM (inactive) | > 100 µM (inactive) | > 100 µM (inactive) | > 100 µM (inactive) | > 100 µM (inactive) | > 100 µM (inactive) | > 100 µM (inactive) | > 100 µM (inactive) | > 100 µM (inactive) | > 100 µM (inactive) | > 100 µM (inactive) | > 100 µM (inactive) | – | > 100 µM (inactive) | > 100 µM (inactive) | > 100 µM (inactive) | > 100 µM (inactive)
13 | O=C(/C=C/c1ccc2c(c1)OCO2)c1ccccc(=O)c1O | – | 5.98 µM (inactive) | 7.73 µM (inactive) | 18.8 µM (inactive) | – | – | 37.9 µM (inactive) | 6.05 µM (inactive) | 13.9 µM (inactive) | 4.94 µM (inactive) | – | > 100 µM (inactive) | 7.8 µM (inactive) | 8.71 µM (inactive) | 20.8 µM (inactive) | 19.9 µM (inactive) | 5.77 µM (inactive) | 21.5 µM (inactive) | 13.7 µM (inactive) | 10.7 µM (inactive)
14 | N#Cc1c(-c2ccccc2)cn(C(=O)c2ccccc2)c1N | – | – | > 100 µM (inactive) | > 100 µM (inactive) | > 100 µM (inactive) | > 100 µM (inactive) | > 100 µM (inactive) | > 100 µM (inactive) | > 100 µM (inactive) | > 100 µM (inactive) | > 100 µM (inactive) | > 100 µM (inactive) | > 100 µM (inactive) | > 100 µM (inactive) | > 100 µM (inactive) | > 100 µM (inactive) | > 100 µM (inactive) | > 100 µM (inactive) | > 100 µM (inactive) | > 100 µM (inactive)
15 | O=C(O)CCC(/N=C(\C(=N\C(CCC(=O)O)C(=O)O)c1ccccc1)c1ccccc1)C(=O)O (stereo not drawn) | > 100 µM (inactive) | – | > 100 µM (inactive) | > 100 µM (inactive) | > 100 µM (inactive) | > 100 µM (inactive) | > 100 µM (inactive) | > 100 µM (inactive) | > 100 µM (inactive) | > 100 µM (inactive) | > 100 µM (inactive) | > 100 µM (inactive) | > 100 µM (inactive) | > 100 µM (inactive) | > 100 µM (inactive) | > 100 µM (inactive) | – | > 100 µM (inactive) | – | > 100 µM (inactive)
